Laboratory results as given in patent US20070032418A1, “Small-molecule inhibitors of angiogenin and rnases and in vivo and in vitro methods of using same” (Ambion, Inc, priority 2003, published 2007).

molecular target: angiogenin (ANG) (Homo sapiens, UniProt P03950); experiment: Inhibition of ANG ribonucleolytic activity, HPLC assay of oligonucleotide cleavage; assay type: biochemical; conditions: not given
Method: Reaction mixtures with and without test compounds were chromatographed on a Mono Q anion-exchange column with an NaCl gradient in 10 mM Tris, pH 8. […] This information was used to calculate kcat/Km values, which were then fitted to the equation (kcat/Km)i=(kcat/Km)0/[…], where (kcat/Km)i and (kcat/Km)0 are defined as the values in the presence and absence of inhibitor, respectively, and [I] is defined as the inhibitor concentration. At least four concentrations (in a range of about 10 μM-above 100 μM) were used in the final hit confirmation in order to distinguish all true hits.
Chemical structures of selected compounds are shown in these Tables and in FIGS. 4 and 5.

Sequence of angiogenin (ANG) (P03950 25-147): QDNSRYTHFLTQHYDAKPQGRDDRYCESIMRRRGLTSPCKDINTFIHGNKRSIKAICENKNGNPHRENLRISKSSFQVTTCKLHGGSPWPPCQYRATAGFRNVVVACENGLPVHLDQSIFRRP

SMILES	Ki [µM]
O=C(O)CC(NC(=O)CP(=O)(O)O)C(=O)O (centres unmarked) [NCI-224131]	> 500

same assay, conditions: 20 mM Hepes, 100 mM NaCl, pH 7.0, 37° C.; read-out: Ki for inhibition of the ribonucleolytic activity of angiogenin

Ki [µM]	SMILES
41	O=C(c1ccc(C(=O)O)c(NC(=O)c2cccc3ccccc23)c1)c1ccc(C(=O)O)c(NC(=O)c2cccc3ccccc23)c1 [CB-181431, 4,4′-dicarboxy-3,3′-bis(naphthylamido)-diphenylmethanone]

same assay, conditions: inhibition of ANG-catalyzed cleavage of an RNA oligonucleotide; 20 mM Hepes, 100 mM NaCl, 37° C.

KI	SMILES
in- active at 75 uM	Nc1cccc(C(=O)Nc2ccc3c(O)cc(S(=O)(=O)O)cc3c2)c1 [NCI-1743]
in- active at 75 uM	Nc1c(OCC(=O)O)ccc2cc(S(=O)(=O)O)ccc12 [NCI-16163]
in- active at 75 uM	O=C(Nc1cc(S(=O)(=O)O)cc2cc(S(=O)(=O)O)cc(O)c12)c1ccccc1 [NCI-16169]
in- active at 75 uM	O=S(=O)(O)c1cc(O)c2c(/N=C/c3ccccc3O)cc(S(=O)(=O)O)cc2c1 [NCI-88947]

same assay, conditions: inhibition of ANG-catalyzed cleavage of an RNA oligonucleotide; 20 mM Hepes, 100 mM NaCl, 37° C.; read-out: KI

Ki [µM]	SMILES
> 1000	O=S(=O)(O)c1cc(O)c2c(O)c(N=Nc3c(O)c(S(=O)(=O)O)cc4cc(S(=O)(=O)O)cc(O)c34)c(S(=O)(=O)O)cc2c1

same assay, conditions: read-out: KI

SMILES	Ki [µM]
Nc1ccc(C(=O)Nc2ccc(C(=O)Nc3ccc4c(O)cc(S(=O)(=O)O)cc4c3)cc2)cc1 [NCI-1741]	~600
O=[N+]([O-])c1ccc(/N=N/c2c(S(=O)(=O)O)cc3cc(S(=O)(=O)O)ccc3c2O)c([N+](=O)[O-])c1 [NCI-9360]	307
COc1cc(-c2ccc(/N=N/c3ccc4c(S(=O)(=O)O)cc(S(=O)(=O)O)c(N)c4c3O)c(OC)c2)ccc1/N=N/c1ccc2c(S(=O)(=O)O)cc(S(=O)(=O)O)c(N)c2c1O [NCI-9617, Chicago Sky Blue 6B]	5
O=C(O)c1ccccc1/N=N/c1c(O)c(S(=O)(=O)O)cc2cc(S(=O)(=O)O)ccc12 [NCI-12455]	239
O=C(Nc1ccc2cc(S(=O)(=O)O)cc(S(=O)(=O)O)c2c1)Nc1ccc2cc(S(=O)(=O)O)cc(S(=O)(=O)O)c2c1 [NCI-12857]	336
COc1ccc(/C=N/c2c(O)ccc3ccccc23)cc1OC [NCI-17061]	900
O=C(Nc1ccc2cc(S(=O)(=O)O)ccc2c1)c1ccc([N+](=O)[O-])cc1 [NCI-37169]	950
O=C(O)c1cc(O)c(O)c(OC(=O)c2cc(O)c(O)c(O)c2CNc2ccc3cc(S(=O)(=O)O)cc(S(=O)(=O)O)c3c2)c1 [NCI-42067]	245
O=[N+]([O-])c1ccc(/N=N/c2c(O)ccc3cc(S(=O)(=O)O)ccc23)cc1 [NCI-45538]	305
O=[N+]([O-])c1ccc(/N=N/c2c(O)c(S(=O)(=O)O)cc3cc(S(=O)(=O)O)ccc23)cc1 [NCI-45540]	307
O=[N+]([O-])c1cccc(/N=N/c2c(O)c(S(=O)(=O)O)cc3cc(S(=O)(=O)O)ccc23)c1 [NCI-45541]	244
O=[N+]([O-])c1ccc(/N=N/c2c(S(=O)(=O)O)cc3cc(S(=O)(=O)O)cc(O)c3c2O)cc1 [NCI-45542]	426
CC(=O)Nc1ccc(/N=N/c2ccc(N)c3cc(S(=O)(=O)O)ccc23)cc1 [NCI-45571]	300
O=[N+]([O-])c1ccc(/N=N/c2c(O)c(/N=N/c3cc([N+](=O)[O-])cc([N+](=O)[O-])c3O)cc(/N=N/c3cc(S(=O)(=O)O)cc4cc(S(=O)(=O)O)cc(O)c34)c2O)cc1 [NCI-47740]	15
Nc1ccc(/N=N/c2ccc(-c3ccc(/N=N/c4c(S(=O)(=O)O)cc5cc(S(=O)(=O)O)c(/N=N/c6ccccc6)c(O)c5c4N)cc3)cc2)c2ccc(S(=O)(=O)O)cc12 [NCI-79596]	5
Nc1ccc2cc(S(=O)(=O)O)c(/N=N/c3ccc(-c4ccc(/N=N/c5c(S(=O)(=O)O)cc6cc(S(=O)(=O)O)c(/N=N/c7cccc([N+](=O)[O-])c7)c(N)c6c5O)cc4)cc3)c(O)c2c1 [NCI-79744]	244

More lines, now with the values ahead:

Ki [µM]	SMILES
234	O=S(=O)(O)c1ccccc1/N=N/c1c(S(=O)(=O)O)cc2cc(S(=O)(=O)O)c(/N=N/c3ccccc3S(=O)(=O)O)c(O)c2c1O [NCI-174066]
195	Nc1ccc2c(O)c(/N=N/c3ccc(-c4ccc(/N=N/c5c(S(=O)(=O)O)cc6cc(S(=O)(=O)O)c(/N=N/c7cc(Cl)ccc7Cl)c(N)c6c5O)cc4)cc3)c(S(=O)(=O)O)cc2c1 [NCI-77521]
194	Cc1ccc(/N=N/c2c(N)ccc3cc(S(=O)(=O)O)ccc23)c(C)c1 [NCI-45569]
183	Nc1cc(S(=O)(=O)O)cc2cc(S(=O)(=O)O)c(/N=N/c3ccc([N+](=O)[O-])cc3)c(O)c12 [NCI-45550]
175	Cc1ccc(/N=N/c2c(O)ccc3cc(S(=O)(=O)O)ccc23)cc1 [NCI-7814]
172	O=S(=O)(O)c1cc(O)c2ccc(Nc3ccc4c(O)cc(S(=O)(=O)O)cc4c3)cc2c1 [NCI-1698]
172	Nc1ccc(/N=N/c2ccc(/C=C/c3ccc(/N=N/c4ccc(N)c5ccc(S(=O)(=O)O)cc45)cc3S(=O)(=O)O)c(S(=O)(=O)O)c2)c2cc(S(=O)(=O)O)ccc12 [NCI-34933]
171	Nc1ccc2cc(S(=O)(=O)O)cc(O)c2c1/N=N/c1ccc(-c2ccc(/N=N/c3c(N)ccc4cc(S(=O)(=O)O)cc(O)c34)cc2)cc1 [NCI-75778]
158	O=S(=O)(O)c1cc(/N=N/c2c(O)ccc3ccccc23)c2c(O)c(/N=N/c3ccc(S(=O)(=O)O)c4ccccc34)c(S(=O)(=O)O)cc2c1 [NCI-8674]
158	O=C(O)c1cc(/N=N/c2ccc(/N=N/c3c(Nc4ccccc4)ccc4cc(S(=O)(=O)O)cc(O)c34)cc2)ccc1O [NCI-45612]
129	O=S(=O)(O)c1ccc(/N=N/c2ccc(/N=N/c3c(O)ccc4cc(S(=O)(=O)O)cc(S(=O)(=O)O)c34)cc2)cc1 [NCI-65546]
129	Nc1ccc2cc(S(=O)(=O)O)cc(O)c2c1/N=N/c1ccc(-c2ccc(/N=N/c3c(S(=O)(=O)O)cc4cc(S(=O)(=O)O)c(/N=N/c5ccc([N+](=O)[O-])cc5)c(N)c4c3O)cc2)cc1 [NCI-65855]
129	Cc1nn(-c2cc(S(=O)(=O)O)ccc2Cl)c(O)c1/N=N/c1c(NC(=O)c2ccc(N)cc2)ccc2cc(S(=O)(=O)O)ccc12 [NCI-75963]
125	O=S(=O)(O)c1cc(O)c2c(/N=N/c3ccc(/N=N/c4c(S(=O)(=O)O)cc5cc(Nc6ccccc6)ccc5c4O)c4ccccc34)cc(S(=O)(=O)O)cc2c1 [NCI-75916]
108	Cc1cc(/N=N/c2ccc(NC(=O)c3ccccc3)c3ccc(S(=O)(=O)O)cc23)ccc1/N=N/c1ccc2c(O)cc(S(=O)(=O)O)cc2c1 [NCI-65844]
104	Nc1ccc(C(=O)Nc2cc(S(=O)(=O)O)cc3cccc(O)c23)cc1 [NCI-37176]
85	O=C(O)c1c(O)ccc(/N=N/c2ccc(/N=N/c3ccc4c(S(=O)(=O)O)cccc4c3O)c3ccccc23)c1O [NCI-47735]

Ki [µM]	SMILES
84	COc1cc(/N=N/c2cc(S(=O)(=O)O)cc3cc(S(=O)(=O)O)cc(O)c23)c(C)cc1/N=N/c1c(S(=O)(=O)O)cc2cc(Nc3ccccc3)ccc2c1O [NCI-47755]
81	Nc1ccc(/N=N/c2ccc(-c3ccc(S(=O)(=O)O)cc3)cc2)c2ccc(S(=O)(=O)O)cc12 [NCI-724225]
77	CC(=O)Nc1ccc(/N=N/c2ccc3cc(S(=O)(=O)O)cc(NC(C)=O)c3c2O)cc1 [NCI-73416]
76	Nc1c(/N=N/c2cc(Cl)ccc2Cl)c(S(=O)(=O)O)cc2cc(S(=O)(=O)O)c(/N=N/c3ccc(Sc4ccc(/N=N/c5ccc(O)cc5)cc4)cc3)c(O)c12 [NCI-75661]
75	O=C(Nc1ccc2cc(S(=O)(=O)O)ccc2c1)c1ccc(/N=N/c2cc(S(=O)(=O)O)c3ccccc3c2O)cc1 [NCI-45608]
60	O=S(=O)(O)c1ccc2c(/N=N/c3ccc(S(=O)(=O)O)c4ccccc34)c(O)c(S(=O)(=O)O)cc2c1 [Amaranth]
38	Cc1cc(/N=N/c2ccc(/N=N/c3c(O)c(S(=O)(=O)O)cc4cc(S(=O)(=O)O)ccc34)cc2C)ccc1/N=N/c1ccc2cc(S(=O)(=O)O)cc(S(=O)(=O)O)c2c1 [NCI-65847]
36	O=S(=O)(O)c1ccc(/N=N/c2ccc(/N=N/c3c(O)ccc4cc(S(=O)(=O)O)ccc34)cc2)cc1 [NCI-58047]
29	COc1cc(/N=N/c2ccc(S(=O)(=O)O)cc2)ccc1/N=N/c1c(O)ccc2cc(S(=O)(=O)O)ccc12 [NCI-65553]
23	Cc1cc(-c2ccc(/N=N/c3c(O)ccc4cc(S(=O)(=O)O)cc(S(=O)(=O)O)c34)c(C)c2)ccc1/N=N/c1c(O)c(S(=O)(=O)O)cc2cc(S(=O)(=O)O)ccc12 [NCI-65568]
23	Nc1c(/N=N/c2ccc(-c3ccc(/N=N/c4c(O)ccc5cc(S(=O)(=O)O)cc(S(=O)(=O)O)c45)cc3)cc2)c(S(=O)(=O)O)cc2cc(S(=O)(=O)O)c(/N=N/c3ccccc3)c(O)c12 [NCI-79741]
15	Nc1ccc(/N=N/c2ccc(-c3ccc(/N=N/c4ccc(N)c5cc(S(=O)(=O)O)ccc45)cc3)cc2)c2ccc(S(=O)(=O)O)cc12 [NCI-45618]
14	Cc1cc(-c2ccc(/N=N/c3c(N)c(S(=O)(=O)O)cc4cc(S(=O)(=O)O)ccc34)c(C)c2)ccc1/N=N/c1cc(S(=O)(=O)O)c2ccccc2c1N [NCI-7815]
5.5	Cc1cc(-c2ccc(/N=N/c3c(N)c(S(=O)(=O)O)cc4cc(S(=O)(=O)O)ccc34)c(C)c2)ccc1/N=N/c1c(N)ccc2cc(S(=O)(=O)O)ccc12 [NCI-16224, direct red 34]
5	O=C(Nc1ccc(/C=C/c2ccc(NC(=O)c3cc(S(=O)(=O)O)c4ccncc4c3O)cc2S(=O)(=O)O)c(S(=O)(=O)O)c1)c1cc(S(=O)(=O)O)c2ccncc2c1O [NCI-665534-P]
3	Cc1cc(NC(=O)c2ccc(/N=N/c3c(O)c(S(=O)(=O)O)cc4cc(S(=O)(=O)O)ccc34)cc2)ccc1/N=N/c1ccc2cc(S(=O)(=O)O)cc(S(=O)(=O)O)c2c1 [NCI-65845]
